Data taken from US20090025102A1, “GLUTAMATE RECEPTOR […] AND PROTEINS FOR ENHANCING NITROGEN U[…] CROP PLANTS” (PIONEER HI-BRED INTERNATIONAL, INC., priority 2007, published 2009).

Assays:
[1] = test system: AtGLR-AP knockout lines; assay: Germination bioassay with the iGLR antagonist DNQX; type: in vivo, Arabidopsis
Procedure: Therefore we used a similar approach to test the sucrose sensitivity of the homozygous AtGLR-APs lines described above by conducting vertical plate assays on MS plates minus N and supplemented with increasing concentrations of sucrose. […] We also developed a short term N-sensitivity bioassay.
Bioassay, iGLR Antagonist DNQX
However, germination of the GRASP2.1-1 line was not affected when DNQX was added to the media.

[2] = test system: PSD1.1 and PSD2.1 KO plants; assay: Growth assay of PSD1.1 and PSD2.1 KO plants on media containing DNQX; type: in vivo, Arabidopsis; settings: 200 or 400 μM DNQX and 3% sucrose, 7 days
Procedure: Growth assays for the PSD1.1 and PSD2.1 KO plants were undertaken. Plants were sown on different media, refrigerated overnight, then incubated in the standard growth conditions for 7 days. The short vernalization was used as that is what has been typically used in this lab for DNQX experiments. […] When grown in the presence of 3% sucrose, both on MS and media lacking nitrogen PSD1.1 and PSD2.1 looks similar to Col-0.

[3] = test system: AtGLR-AP knockout lines; settings: lines deficient in AtGLR1.1, uM 200, previously demonstrated; cited from earlier work

O=c1[nH]c2cc([N+](=O)[O-])c([N+](=O)[O-])cc2[nH]c1=O [DNQX, 6,7-dinitroquinoxaline-2,3-[1H,4H]-dione]
germination when DNQX was added to the media ([1]; GRASP2.1-1 line): not affected
germination on media supplemented DNQX ([1]; GRASP2.3-6 line): noticeable reduction in germination
decrease in germination ([1]; PSD1.1 knockout, 200 uM DNQX): 35-40%
difference between Col-0 and the two KO lines [2]: No obvious difference
sensitivity of Arabidopsis lines deficient in AtGLR1.1 to the iGLR antagonist [3]: sensitive
